We go through six compounds from ChEMBL document CHEMBL3886805, “Pyrrolotriazinone derivatives as PI3K inhibitors” (2016).

For this test, the target named is T1, Phosphatidylinositol 4,5-bisphosphate 3-kinase catalytic subunit delta isoform (Homo sapiens, UniProt O00329).
T1 sequence (O00329 whole entry): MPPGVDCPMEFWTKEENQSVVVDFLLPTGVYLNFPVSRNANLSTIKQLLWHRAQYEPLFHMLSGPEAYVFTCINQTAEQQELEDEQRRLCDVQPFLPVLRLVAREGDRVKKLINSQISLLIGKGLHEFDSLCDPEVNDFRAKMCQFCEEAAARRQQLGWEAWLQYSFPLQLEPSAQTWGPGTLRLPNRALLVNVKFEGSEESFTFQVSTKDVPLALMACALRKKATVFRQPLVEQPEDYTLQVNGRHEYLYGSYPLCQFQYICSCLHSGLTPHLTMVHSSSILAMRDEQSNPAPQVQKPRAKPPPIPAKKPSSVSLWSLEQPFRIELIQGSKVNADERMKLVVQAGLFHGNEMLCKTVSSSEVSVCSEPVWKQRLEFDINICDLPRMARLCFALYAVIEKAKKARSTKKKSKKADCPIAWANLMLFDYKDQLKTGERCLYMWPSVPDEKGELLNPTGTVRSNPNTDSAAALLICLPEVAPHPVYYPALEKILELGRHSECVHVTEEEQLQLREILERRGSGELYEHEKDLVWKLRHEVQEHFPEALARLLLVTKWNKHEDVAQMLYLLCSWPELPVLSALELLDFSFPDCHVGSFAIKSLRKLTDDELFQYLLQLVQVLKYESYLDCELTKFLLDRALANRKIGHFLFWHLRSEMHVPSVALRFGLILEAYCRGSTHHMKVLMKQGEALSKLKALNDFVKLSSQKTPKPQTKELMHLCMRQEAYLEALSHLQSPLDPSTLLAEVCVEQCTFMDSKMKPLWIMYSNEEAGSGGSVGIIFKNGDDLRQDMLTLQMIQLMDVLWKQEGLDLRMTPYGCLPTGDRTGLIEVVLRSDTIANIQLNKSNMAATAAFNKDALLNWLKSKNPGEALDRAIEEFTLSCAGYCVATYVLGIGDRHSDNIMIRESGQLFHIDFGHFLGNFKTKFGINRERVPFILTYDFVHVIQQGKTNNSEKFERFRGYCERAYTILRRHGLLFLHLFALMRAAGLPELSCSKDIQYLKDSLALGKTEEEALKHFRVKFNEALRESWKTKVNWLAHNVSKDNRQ
As to the kind of experiment: [PIP2] was used at its Km.
For orientation: IC50 means the midpoint of a concentration-inhibition curve. The low end stands for inhibition by little substance, the high end for a need for much substance. As for `COc1ncc(-c2c(N)ncnc2N[C@@H](C)c2nn3ccc(Br)c3c(=O)n2-c2ccccc2)cc1NS(C)(=O)=O`, the IC50 amounted to 25 nM.

`C[C@H](Nc1ncnc(N)c1C#N)c1nn2ccc(Sc3ccc(O)c(F)c3)c2c(=O)n1-c1ccccc1` gave an IC50 of 2 nM.

Regarding `COc1ccc(S(=O)(=O)n2ncc3ccc(-c4c(N)ncnc4N[C@@H](C)c4nn5ccc(C)c5c(=O)n4-c4ccccc4)cc32)cc1`, the IC50 was 0.4 nM.

Regarding `Cc1ccn2nc([C@H](C)Nc3ncnc(N)c3C(=O)Nc3cc(C(N)=O)ccc3O)n(-c3ccccc3)c(=O)c12`, the midpoint of inhibition, the IC50, lay at 3 nM.

`COc1ncc(-c2c(N)ncnc2N[C@@H](C)c2nn3ccc(C)c3c(=O)n2-c2ccccc2)cc1NS(=O)(=O)C(F)(F)F` had an IC50 of 1 nM.

The compound `Cc1ccn2nc([C@H](C)Nc3ncnc(N)c3C(=O)Nc3cccc(O)c3)n(-c3ccccc3)c(=O)c12` came in with an IC50 of 3 nM.
